#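 Results reflect a 48-hour exposure of cells in 96-well plates to compound at five concentrations. At the GI50, growth is halved.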 Calls of active or inactive are those of the source. No stated cut-off is given here; in the data, active = GI50 up to about 1.1 µM and inactive = higher.
# What was measured:
# Test in all cases: NCI anticancer screen, dose series, 48 h
# U-251 = system: U-251
# COLO 205 = system: COLO 205
# KM12 = system: KM12
# DMS-114 = system: DMS-114
# CAKI-1 = system: CAKI-1
# RPMI-8226 = system: RPMI-8226
# EKVX = system: EKVX
# CCRF-CEM = system: CCRF-CEM
# Malme-3M = system: Malme-3M
# OVCAR-4 = system: OVCAR-4
# UO-31 = system: UO-31
# A549 = system: A549
# SR = system: SR
# ACHN = system: ACHN
# SF-295 = system: SF-295
# HL-60 = system: HL-60
# NCI-H460 = system: NCI-H460
# HOP-62 = system: HOP-62
# KM-20L2 = system: KM-20L2
# LXFL 529 = system: LXFL 529
# IGROV-1 = system: IGROV-1
# M14 = system: M14
# SNB-75 = system: SNB-75
# OVCAR-3 = system: OVCAR-3
# OVCAR-5 = system: OVCAR-5
# K562 = system: K562
# HT-29 = system: HT-29
# UACC-257 = system: UACC-257
# RXF 393 = system: RXF 393
# SNB-78 = system: SNB-78
# M19-MEL = system: M19-MEL
# UACC-62 = system: UACC-62
# HOP-18 = system: HOP-18
# MOLT-4 = system: MOLT-4
# SK-MEL-5 = system: SK-MEL-5
# TK-10 = system: TK-10
# SK-MEL-28 = system: SK-MEL-28
# SN12C = system: SN12C
# NCI-H23 = system: NCI-H23
# DMS-273 = system: DMS-273
# LOX IMVI = system: LOX IMVI
# SNB-19 = system: SNB-19
# SW-620 = system: SW-620
# HCT-116 = system: HCT-116
# 786-0 = system: 786-0
# SK-OV-3 = system: SK-OV-3
# XF498 = system: XF498
# HCT-15 = system: HCT-15
# HCC 2998 = system: HCC 2998
# NCI-H522 = system: NCI-H522
# NCI-H226 = system: NCI-H226
# SF-268 = system: SF-268
# OVCAR-8 = system: OVCAR-8
# SK-MEL-2 = system: SK-MEL-2
# DLD-1 = system: DLD-1
# HOP-92 = system: HOP-92
# A498 = system: A498
# SF-539 = system: SF-539
smiles,measurement,setting,value
COc1ccc(C2C(Cl)C(=O)N2n2cnc3ccccc3c2=O)cc1OC (centres undefined),GI50,U-251,> 100 µM (inactive)
same,GI50,COLO 205,> 100 µM (inactive)
same,GI50,KM12,> 100 µM (inactive)
same,GI50,DMS-114,> 100 µM (inactive)
same,GI50,CAKI-1,> 100 µM (inactive)
same,GI50,RPMI-8226,81.1 µM (inactive)
same,GI50,EKVX,> 100 µM (inactive)
same,GI50,CCRF-CEM,> 10 µM (inactive)
same,GI50,Malme-3M,> 100 µM (inactive)
same,GI50,OVCAR-4,> 100 µM (inactive)
same,GI50,UO-31,22.3 µM (inactive)
same,GI50,A549,> 100 µM (inactive)
same,GI50,SR,38.7 µM (inactive)
same,GI50,ACHN,> 100 µM (inactive)
same,GI50,SF-295,> 100 µM (inactive)
same,GI50,HL-60,57.7 µM (inactive)
same,GI50,NCI-H460,81.1 µM (inactive)
same,GI50,HOP-62,> 100 µM (inactive)
same,GI50,KM-20L2,> 100 µM (inactive)
same,GI50,LXFL 529,> 100 µM (inactive)
same,GI50,IGROV-1,74.1 µM (inactive)
same,GI50,M14,> 100 µM (inactive)
same,GI50,SNB-75,21.5 µM (inactive)
same,GI50,OVCAR-3,44.6 µM (inactive)
same,GI50,OVCAR-5,> 100 µM (inactive)
same,GI50,K562,> 100 µM (inactive)
same,GI50,HT-29,> 100 µM (inactive)
same,GI50,UACC-257,32 µM (inactive)
same,GI50,RXF 393,96.8 µM (inactive)
same,GI50,SNB-78,> 100 µM (inactive)
same,GI50,M19-MEL,> 100 µM (inactive)
same,GI50,UACC-62,74.1 µM (inactive)
same,GI50,HOP-18,25.3 µM (inactive)
same,GI50,MOLT-4,82.4 µM (inactive)
same,GI50,SK-MEL-5,> 100 µM (inactive)
same,GI50,TK-10,> 100 µM (inactive)
same,GI50,SK-MEL-28,68.7 µM (inactive)
same,GI50,SN12C,> 100 µM (inactive)
same,GI50,NCI-H23,42 µM (inactive)
same,GI50,DMS-273,> 100 µM (inactive)
same,GI50,LOX IMVI,> 100 µM (inactive)
same,GI50,SNB-19,52.4 µM (inactive)
same,GI50,SW-620,> 100 µM (inactive)
same,GI50,HCT-116,53 µM (inactive)
same,GI50,786-0,> 100 µM (inactive)
same,GI50,SK-OV-3,76.4 µM (inactive)
same,GI50,XF498,> 100 µM (inactive)
same,GI50,HCT-15,> 100 µM
same,GI50,HCC 2998,> 100 µM (inactive)
same,GI50,NCI-H522,57.9 µM (inactive)
same,GI50,NCI-H226,30.5 µM (inactive)
same,GI50,SF-268,85.7 µM (inactive)
same,GI50,OVCAR-8,> 100 µM (inactive)
same,GI50,SK-MEL-2,> 100 µM (inactive)
C=CC/N=C1/N=C(CC(=O)OCC)CS1,GI50,U-251,> 100 µM (inactive)
same,GI50,COLO 205,> 100 µM (inactive)
same,GI50,DLD-1,> 100 µM (inactive)
same,GI50,KM12,> 100 µM (inactive)
same,GI50,DMS-114,> 100 µM (inactive)
same,GI50,CAKI-1,> 100 µM (inactive)
same,GI50,EKVX,> 100 µM (inactive)
same,GI50,CCRF-CEM,> 100 µM (inactive)
same,GI50,Malme-3M,> 100 µM (inactive)
same,GI50,HOP-92,> 100 µM (inactive)
same,GI50,OVCAR-4,> 100 µM (inactive)
same,GI50,UO-31,> 100 µM (inactive)
same,GI50,A549,> 100 µM (inactive)
same,GI50,ACHN,> 100 µM (inactive)
same,GI50,SF-295,> 100 µM (inactive)
same,GI50,HL-60,> 100 µM (inactive)
same,GI50,NCI-H460,> 100 µM (inactive)
same,GI50,HOP-62,> 100 µM (inactive)
same,GI50,KM-20L2,> 100 µM (inactive)
same,GI50,LXFL 529,> 100 µM (inactive)
same,GI50,IGROV-1,> 100 µM (inactive)
same,GI50,M14,> 100 µM (inactive)
same,GI50,SNB-75,> 100 µM (inactive)
same,GI50,OVCAR-3,> 100 µM (inactive)
same,GI50,OVCAR-5,> 100 µM (inactive)
same,GI50,K562,> 100 µM (inactive)
same,GI50,HT-29,> 100 µM (inactive)
same,GI50,UACC-257,> 100 µM (inactive)
same,GI50,A498,> 100 µM (inactive)
same,GI50,RXF 393,> 100 µM (inactive)
same,GI50,SNB-78,> 100 µM (inactive)
same,GI50,M19-MEL,> 100 µM (inactive)
same,GI50,UACC-62,> 100 µM (inactive)
same,GI50,SF-539,> 100 µM (inactive)
same,GI50,HOP-18,> 100 µM (inactive)
same,GI50,SK-MEL-5,> 100 µM (inactive)
same,GI50,TK-10,> 100 µM (inactive)
same,GI50,SK-MEL-28,> 100 µM (inactive)
same,GI50,SN12C,> 100 µM (inactive)
same,GI50,NCI-H23,> 100 µM (inactive)
same,GI50,DMS-273,> 100 µM (inactive)
same,GI50,LOX IMVI,> 100 µM (inactive)
same,GI50,SNB-19,> 100 µM (inactive)
same,GI50,SW-620,> 100 µM (inactive)
same,GI50,HCT-116,> 100 µM (inactive)
same,GI50,786-0,> 100 µM (inactive)
same,GI50,SK-OV-3,> 100 µM (inactive)
same,GI50,XF498,> 100 µM (inactive)
same,GI50,HCT-15,> 100 µM
same,GI50,HCC 2998,> 100 µM (inactive)
same,GI50,NCI-H522,> 100 µM (inactive)
same,GI50,NCI-H226,> 100 µM (inactive)
same,GI50,SF-268,> 100 µM (inactive)
same,GI50,OVCAR-8,> 100 µM (inactive)
same,GI50,SK-MEL-2,> 100 µM (inactive)
